Experimental data taken from US20230330059A1, “3-PHENYL-2H-CHROMENE DERIVATIVE AND PHARMACEUTICAL COMPOSITION FOR PREVENTING OR TREATING ALZHEIMER'S, CONTAINING SAME” (NEUROBIONET, INC., priority 2020, published 2023).

How the values were obtained:
Type in all cases: in vivo, mouse
[1] = test system: 5xFAD mice; assay: Novel object recognition test; settings: 10 mg/kg orally once a day for 1 month, between groups, FIG. 20
Procedure: (§1) The experiment was conducted with 5X-FAD transgenic mice having Alzheimer’s disease introduced therein. The 5X FAD mouse is an animal model of Alzheimer’s disease with all the human AD-linked mutations: Swedish (K670N/ […]), Florida (1716V) and London (V7171) in APP (695) and M146L in Presenilin 1
(§2) 5xFAD mice were purchased from Jackson Lab and bred in and in through mating with C57B16/SJL F1 females, based on the information provided by the supplier. Through genotyping, the mice were divided into groups of 7-9 members, including normal groups (WT) and genetically modified groups (5xFAD): 4.5-month-old 5xFAD mice (Tg) and age-matched controls (WT). To the WT or Tg groups, a vehicle or SPA1413 was orally administered at a dose of 10 mg/kg once a day for 1 month. To test whether SPA1413 has a therapeutic effect on Alzheimer’s disease, the mice in 5 groups (WT-vehicle; WT-SPA1413 5xFAD-vehicle; 5xFAD-SPA1413; and 5xFAD-donepezil) were evaluated for cognitive ability.
For a novel object recognition test, the Ethovision XT 9 system was used to examine whether an animal was interested in a new object. […] An object newly recognizable to the animals was put into the box, and the time and frequency of staying near the object were measured to determine how interested the animals were in it. […]

[2] = test system: amyloid plaques in cortex and hippocampus of 5xFAD mice; assay: Immunohistochemical assay of amyloid plaques (6E10 antibody, Thioflavin S); settings: 10 mg/kg, FIGS. 24 and 25
Procedure: as §2
After the animal behavior experiments, the brain tissues of the experimental animals were recovered, sectioned, and then stained with Thioflavin S for immunostaining chemistry using the 6E10 antibody.
Immunohistochemical staining is a technique for detecting specific proteins within tissues by staining the same. […] The stained tissues were observed through a fluorescence microscope, and the images are depicted in FIG. 23.
The quantitative analysis results of the images of the tissues stained with the 6E10 antibody and Thioflavin S are presented in FIGS. 24 and 25. Five experimental animals were selected from each group and analyzed. […]

[3] = test system: MHC II-positive microglia in cortex and hippocampus of 5xFAD mice; assay: MHC II-positive activated microglia in brain tissue; settings: 10 mg/kg, FIGS. 26 and 27
[4] = test system: 5xFAD mice; assay: Y-maze test; settings: 10 mg/kg orally once a day for 1 month, vs 5xFAD-saline group, FIG. 21
Procedure: as §1, §2
Memory impairment was evaluated using the Y-shaped maze test. For the Y-shaped maze test, a Y-shaped arm was installed in a water tank. […] After a random number was assigned to each arm, the arm number in which the animal entered was recorded. Memory was assessed by the animal’s ability to remember the route it had taken and to try to navigate the new route.

## Oc1ccc(C2=Cc3ccc(O)cc3OC2)cc1 [SPA1413, 3-(4-Hydroxyphenyl)-2H-chromen-7-ol]
[1]
  total distance: no significant difference
  velocity: no significant difference
[2]
  amyloid plaques in the cortex and hippocampus: significantly reduced
[3]
  number of activated microglia showing a positive MHC II reaction: significantly decrease
[4]
  total arm entries: no significant difference
